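Cultured in 96-well plates, cells were exposed to test compound for 48 hours across five concentrations. GI50: concentration for 50% inhibition of growth. TGI denotes the concentration required for complete inhibition of growth.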
Legend:
Assay in all cases: inhibition of tumour cell growth, NCI panel, 48 h; in the data active = GI50 below about 0.43 µM; inactive = the rest
HOP-18 NSCLC = system: HOP-18 NSCLC
NCI-H460 lung = system: NCI-H460 lung
A549 NSCLC = system: A549 NSCLC
SF-295 CNS = system: SF-295 CNS
SNB-75 CNS = system: SNB-75 CNS
RXF 393 renal = system: RXF 393 renal
TK-10 renal = system: TK-10 renal
OVCAR-4 ovarian = system: OVCAR-4 ovarian
OVCAR-8 ovarian = system: OVCAR-8 ovarian
UACC-257 melanoma = system: UACC-257 melanoma
U251 CNS = system: U251 CNS
NCI-H23 lung = system: NCI-H23 lung
MALME-3M melanoma = system: MALME-3M melanoma
NCI-H226 lung = system: NCI-H226 lung
SNB-19 CNS = system: SNB-19 CNS
OVCAR-5 ovarian = system: OVCAR-5 ovarian
HCT-15 colon = system: HCT-15 colon
EKVX NSCLC = system: EKVX NSCLC
HCC-2998 colon = system: HCC-2998 colon
HT29 colon = system: HT29 colon
UACC-62 melanoma = system: UACC-62 melanoma
SK-OV-3 ovarian = system: SK-OV-3 ovarian
SK-MEL-28 melanoma = system: SK-MEL-28 melanoma
SW-620 colon = system: SW-620 colon
DLD-1 colon = system: DLD-1 colon
KM20L2 colon = system: KM20L2 colon
SK-MEL-5 melanoma = system: SK-MEL-5 melanoma
LOX IMVI melanoma = system: LOX IMVI melanoma
KM12 colon = system: KM12 colon
CCRF-CEM leukemia = system: CCRF-CEM leukemia
UO-31 renal = system: UO-31 renal
RPMI-8226 leukemia = system: RPMI-8226 leukemia
IGROV1 ovarian = system: IGROV1 ovarian
SN12C renal = system: SN12C renal
SF-539 CNS = system: SF-539 CNS
CAKI-1 renal = system: CAKI-1 renal
SK-MEL-2 melanoma = system: SK-MEL-2 melanoma
786-0 renal = system: 786-0 renal
K-562 leukemia = system: K-562 leukemia
HOP-62 NSCLC = system: HOP-62 NSCLC
HL-60(TB) leukemia = system: HL-60(TB) leukemia
LXFL 529 NSCLC = system: LXFL 529 NSCLC

O=C1C(=C([O-])c2ccccc2)C(=O)c2ccccc21.O=C1C(=C([O-])c2ccccc2)C(=O)c2ccccc21.[Ni+2]
> 100 µM: TGI (HOP-18 NSCLC) | TGI (NCI-H460 lung) | TGI (A549 NSCLC) | TGI (SF-295 CNS) | TGI (SNB-75 CNS) | TGI (RXF 393 renal) | TGI (TK-10 renal) | TGI (OVCAR-4 ovarian) | TGI (OVCAR-8 ovarian) | TGI (UACC-257 melanoma) | TGI (U251 CNS) | TGI (NCI-H23 lung) | TGI (MALME-3M melanoma) | TGI (SNB-19 CNS) | TGI (OVCAR-5 ovarian) | TGI (HCT-15 colon) | TGI (EKVX NSCLC) | TGI (HCC-2998 colon) | TGI (HT29 colon) | TGI (UACC-62 melanoma) | TGI (SK-MEL-28 melanoma) | TGI (SW-620 colon) | TGI (DLD-1 colon) | TGI (KM20L2 colon) | TGI (LOX IMVI melanoma) | TGI (KM12 colon) | TGI (CCRF-CEM leukemia) | TGI (UO-31 renal) | TGI (RPMI-8226 leukemia) | TGI (IGROV1 ovarian) | TGI (SN12C renal) | TGI (SF-539 CNS) | TGI (CAKI-1 renal) | TGI (SK-MEL-2 melanoma)
98.4 µM: TGI (SK-OV-3 ovarian)
54.9 µM: TGI (SK-MEL-5 melanoma)
inactive: GI50 (HOP-18 NSCLC) 27.9 µM | GI50 (NCI-H460 lung) 33.9 µM | GI50 (A549 NSCLC) 52.5 µM | GI50 (SF-295 CNS) 41.4 µM | GI50 (SNB-75 CNS) 35.2 µM | GI50 (RXF 393 renal) 48.8 µM | GI50 (TK-10 renal) > 100 µM | GI50 (OVCAR-4 ovarian) 61.6 µM | GI50 (OVCAR-8 ovarian) 48.1 µM | GI50 (UACC-257 melanoma) 83.3 µM | GI50 (U251 CNS) 34.5 µM | GI50 (NCI-H23 lung) 37.4 µM | GI50 (MALME-3M melanoma) 75.4 µM | GI50 (NCI-H226 lung) 4.68 µM | GI50 (SNB-19 CNS) 58.8 µM | GI50 (OVCAR-5 ovarian) 13.4 µM | GI50 (HCT-15 colon) 47.2 µM | GI50 (EKVX NSCLC) 44.4 µM | GI50 (HCC-2998 colon) 58.9 µM | GI50 (HT29 colon) 77 µM | GI50 (UACC-62 melanoma) 36.8 µM | GI50 (SK-OV-3 ovarian) 23.1 µM | GI50 (SK-MEL-28 melanoma) 62.2 µM | GI50 (SW-620 colon) 58.9 µM | GI50 (DLD-1 colon) 40.2 µM | GI50 (KM20L2 colon) > 100 µM | GI50 (SK-MEL-5 melanoma) 18.2 µM | GI50 (LOX IMVI melanoma) 34.6 µM | GI50 (KM12 colon) 84.6 µM | GI50 (CCRF-CEM leukemia) 54.7 µM | GI50 (UO-31 renal) 27.2 µM | GI50 (RPMI-8226 leukemia) > 100 µM | GI50 (IGROV1 ovarian) 48.2 µM | GI50 (SN12C renal) 51.3 µM | GI50 (SF-539 CNS) 59.2 µM | GI50 (CAKI-1 renal) 33.9 µM | GI50 (SK-MEL-2 melanoma) 98 µM
63.5 µM: TGI (NCI-H226 lung)

COc1cccc2c1C(=O)c1c(O)c3c(c(O)c1C2=O)C[C@@](O)(C(=O)CO)CC3OC1CC(NCCOCC(OC(C)=O)OC(C)=O)C(O)C(C)O1 (some centres not stated)
1.71 µM: TGI (SW-620 colon)
47.9 µM: TGI (SK-OV-3 ovarian)
1.23 µM: TGI (U251 CNS)
3.04 µM: TGI (IGROV1 ovarian)
1.32 µM: TGI (SN12C renal)
12.2 µM: TGI (LXFL 529 NSCLC)
3.16 µM: TGI (786-0 renal)
0.38 µM: TGI (DLD-1 colon)
0.009 µM: TGI (HOP-62 NSCLC)
> 100 µM: TGI (A549 NSCLC) | TGI (TK-10 renal) | TGI (K-562 leukemia) | TGI (SNB-19 CNS) | TGI (HL-60(TB) leukemia) | TGI (CCRF-CEM leukemia) | TGI (CAKI-1 renal)
31.1 µM: TGI (OVCAR-4 ovarian)
0.0144 µM: TGI (HCT-15 colon)
